Source: PubChem BioAssay (NCI)
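Following 48 hours of exposure in 96-well plates, responses at five concentrations were used to interpolate endpoints linearly. TGI marks complete inhibition of growth.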

Key:
Assay in all cases: NCI tumour cell line growth inhibition, 48 h
SNB-78 CNS = test system: SNB-78 CNS
SK-OV-3 ovarian = test system: SK-OV-3 ovarian
DMS 273 small cell lung = test system: DMS 273 small cell lung
HCT-15 colon = test system: HCT-15 colon
M14 melanoma = test system: M14 melanoma
NCI-H226 lung = test system: NCI-H226 lung
DMS 114 small cell lung = test system: DMS 114 small cell lung
OVCAR-8 ovarian = test system: OVCAR-8 ovarian
XF 498 CNS = test system: XF 498 CNS
SF-539 CNS = test system: SF-539 CNS
A498 renal = test system: A498 renal
U251 CNS = test system: U251 CNS
OVCAR-3 ovarian = test system: OVCAR-3 ovarian
HCT-116 colon = test system: HCT-116 colon
NCI-H23 lung = test system: NCI-H23 lung
KM20L2 colon = test system: KM20L2 colon
TK-10 renal = test system: TK-10 renal
HOP-92 NSCLC = test system: HOP-92 NSCLC
SN12C renal = test system: SN12C renal
RPMI-8226 leukemia = test system: RPMI-8226 leukemia
COLO 205 colon = test system: COLO 205 colon
IGROV1 ovarian = test system: IGROV1 ovarian
SK-MEL-5 melanoma = test system: SK-MEL-5 melanoma
HCC-2998 colon = test system: HCC-2998 colon
A549 NSCLC = test system: A549 NSCLC
CAKI-1 renal = test system: CAKI-1 renal
LXFL 529 NSCLC = test system: LXFL 529 NSCLC
HL-60(TB) leukemia = test system: HL-60(TB) leukemia
OVCAR-4 ovarian = test system: OVCAR-4 ovarian
MALME-3M melanoma = test system: MALME-3M melanoma
K-562 leukemia = test system: K-562 leukemia
SNB-75 CNS = test system: SNB-75 CNS
HOP-18 NSCLC = test system: HOP-18 NSCLC
SK-MEL-28 melanoma = test system: SK-MEL-28 melanoma
KM12 colon = test system: KM12 colon
RXF 393 renal = test system: RXF 393 renal
HT29 colon = test system: HT29 colon
EKVX NSCLC = test system: EKVX NSCLC
786-0 renal = test system: 786-0 renal
NCI-H460 lung = test system: NCI-H460 lung
NCI-H522 lung = test system: NCI-H522 lung
HOP-62 NSCLC = test system: HOP-62 NSCLC
LOX IMVI melanoma = test system: LOX IMVI melanoma
UACC-257 melanoma = test system: UACC-257 melanoma
M19-MEL melanoma = test system: M19-MEL melanoma
UACC-62 melanoma = test system: UACC-62 melanoma
RXF-631 renal = test system: RXF-631 renal
SK-MEL-2 melanoma = test system: SK-MEL-2 melanoma
SNB-19 CNS = test system: SNB-19 CNS
CCRF-CEM leukemia = test system: CCRF-CEM leukemia
OVCAR-5 ovarian = test system: OVCAR-5 ovarian
ACHN renal = test system: ACHN renal
SW-620 colon = test system: SW-620 colon
DLD-1 colon = test system: DLD-1 colon
UO-31 renal = test system: UO-31 renal
SF-268 CNS = test system: SF-268 CNS
SR leukemia = test system: SR leukemia
MOLT-4 leukemia = test system: MOLT-4 leukemia
SF-295 CNS = test system: SF-295 CNS
BT-549 breast = test system: BT-549 breast
T-47D breast = test system: T-47D breast
HS 578T breast = test system: HS 578T breast
DU-145 prostate = test system: DU-145 prostate
PC-3 prostate = test system: PC-3 prostate
MDA-N = test system: MDA-N
MDA-MB-435 = test system: MDA-MB-435
MCF7 breast = test system: MCF7 breast

## Cc1cc(N(CCC#N)S(C)(=O)=O)ccc1C=Nc1ccc(C(=O)NN2C(=O)/C(=C/c3ccc(N(CCC#N)CCC#N)cc3C)N=C2c2cc([N+](=O)[O-])ccc2Cl)cc1
SNB-78 CNS
  TGI: > 100 µM
SK-OV-3 ovarian
  TGI: > 100 µM
DMS 273 small cell lung
  TGI: > 100 µM
HCT-15 colon
  TGI: > 100 µM
M14 melanoma
  TGI: > 100 µM
NCI-H226 lung
  TGI: > 100 µM
DMS 114 small cell lung
  TGI: > 100 µM
OVCAR-8 ovarian
  TGI: > 100 µM
XF 498 CNS
  TGI: > 100 µM
SF-539 CNS
  TGI: > 100 µM
A498 renal
  TGI: > 100 µM
U251 CNS
  TGI: > 100 µM
OVCAR-3 ovarian
  TGI: > 100 µM
HCT-116 colon
  TGI: > 100 µM
NCI-H23 lung
  TGI: > 100 µM
KM20L2 colon
  TGI: > 100 µM
TK-10 renal
  TGI: > 100 µM
HOP-92 NSCLC
  TGI: > 100 µM
SN12C renal
  TGI: > 100 µM
RPMI-8226 leukemia
  TGI: > 100 µM
COLO 205 colon
  TGI: > 100 µM
IGROV1 ovarian
  TGI: > 100 µM
SK-MEL-5 melanoma
  TGI: > 100 µM
HCC-2998 colon
  TGI: > 100 µM
A549 NSCLC
  TGI: > 100 µM
CAKI-1 renal
  TGI: > 100 µM
LXFL 529 NSCLC
  TGI: > 100 µM
HL-60(TB) leukemia
  TGI: > 100 µM
OVCAR-4 ovarian
  TGI: > 100 µM
MALME-3M melanoma
  TGI: > 100 µM
K-562 leukemia
  TGI: > 100 µM
SNB-75 CNS
  TGI: > 100 µM
HOP-18 NSCLC
  TGI: > 100 µM
SK-MEL-28 melanoma
  TGI: > 100 µM
KM12 colon
  TGI: > 100 µM
RXF 393 renal
  TGI: > 100 µM
HT29 colon
  TGI: > 100 µM
EKVX NSCLC
  TGI: > 100 µM
786-0 renal
  TGI: > 100 µM
NCI-H460 lung
  TGI: > 100 µM
NCI-H522 lung
  TGI: > 100 µM
HOP-62 NSCLC
  TGI: > 100 µM
LOX IMVI melanoma
  TGI: > 100 µM
UACC-257 melanoma
  TGI: > 100 µM
M19-MEL melanoma
  TGI: > 100 µM
UACC-62 melanoma
  TGI: > 100 µM
RXF-631 renal
  TGI: > 100 µM
SK-MEL-2 melanoma
  TGI: > 100 µM
SNB-19 CNS
  TGI: > 100 µM
CCRF-CEM leukemia
  TGI: > 100 µM
OVCAR-5 ovarian
  TGI: > 100 µM
ACHN renal
  TGI: > 100 µM
SW-620 colon
  TGI: > 100 µM
DLD-1 colon
  TGI: > 100 µM
UO-31 renal
  TGI: > 100 µM
SF-268 CNS
  TGI: > 100 µM

## COC(C(=O)NCCCCNC(=O)C(OC)c1ccccc1)c1ccccc1 (stereo unspecified)
SNB-78 CNS
  TGI: > 100 µM
SK-OV-3 ovarian
  TGI: > 100 µM
DMS 273 small cell lung
  TGI: > 100 µM
HCT-15 colon
  TGI: > 100 µM
M14 melanoma
  TGI: > 100 µM
NCI-H226 lung
  TGI: > 100 µM
DMS 114 small cell lung
  TGI: > 100 µM
OVCAR-8 ovarian
  TGI: > 100 µM
XF 498 CNS
  TGI: > 100 µM
SF-539 CNS
  TGI: > 100 µM
A498 renal
  TGI: > 100 µM
U251 CNS
  TGI: > 100 µM
OVCAR-3 ovarian
  TGI: > 100 µM
HCT-116 colon
  TGI: > 100 µM
NCI-H23 lung
  TGI: > 100 µM
KM20L2 colon
  TGI: > 100 µM
TK-10 renal
  TGI: > 100 µM
HOP-92 NSCLC
  TGI: > 100 µM
SN12C renal
  TGI: > 100 µM
RPMI-8226 leukemia
  TGI: > 100 µM
COLO 205 colon
  TGI: > 100 µM
IGROV1 ovarian
  TGI: > 100 µM
SK-MEL-5 melanoma
  TGI: > 100 µM
A549 NSCLC
  TGI: > 100 µM
CAKI-1 renal
  TGI: > 100 µM
LXFL 529 NSCLC
  TGI: > 100 µM
HL-60(TB) leukemia
  TGI: > 100 µM
SR leukemia
  TGI: > 100 µM
OVCAR-4 ovarian
  TGI: > 100 µM
MALME-3M melanoma
  TGI: > 100 µM
K-562 leukemia
  TGI: > 100 µM
SNB-75 CNS
  TGI: > 100 µM
HOP-18 NSCLC
  TGI: > 100 µM
SK-MEL-28 melanoma
  TGI: > 100 µM
MOLT-4 leukemia
  TGI: > 100 µM
KM12 colon
  TGI: > 100 µM
RXF 393 renal
  TGI: > 100 µM
HT29 colon
  TGI: > 100 µM
EKVX NSCLC
  TGI: > 100 µM
786-0 renal
  TGI: > 100 µM
NCI-H460 lung
  TGI: > 100 µM
NCI-H522 lung
  TGI: > 100 µM
HOP-62 NSCLC
  TGI: > 100 µM
LOX IMVI melanoma
  TGI: > 100 µM
UACC-257 melanoma
  TGI: > 100 µM
M19-MEL melanoma
  TGI: > 100 µM
UACC-62 melanoma
  TGI: > 100 µM
RXF-631 renal
  TGI: > 100 µM
SK-MEL-2 melanoma
  TGI: > 100 µM
SNB-19 CNS
  TGI: > 100 µM
CCRF-CEM leukemia
  TGI: > 100 µM
OVCAR-5 ovarian
  TGI: > 100 µM
SF-295 CNS
  TGI: > 100 µM
ACHN renal
  TGI: > 100 µM
SW-620 colon
  TGI: > 100 µM
DLD-1 colon
  TGI: > 100 µM
UO-31 renal
  TGI: > 100 µM
SF-268 CNS
  TGI: > 100 µM

## CC[N+]1(C)CCC(O)(c2ccc(OC)cc2)C(C(=O)c2ccc(OC)cc2)C1 (stereo unspecified)
SNB-78 CNS
  TGI: 41.5 µM
SK-OV-3 ovarian
  TGI: 33.7 µM
DMS 273 small cell lung
  TGI: 43.1 µM
HCT-15 colon
  TGI: 25.3 µM
M14 melanoma
  TGI: 21.3 µM
NCI-H226 lung
  TGI: 34.4 µM
DMS 114 small cell lung
  TGI: 45.9 µM
OVCAR-8 ovarian
  TGI: 59.4 µM
XF 498 CNS
  TGI: 23.3 µM
SF-539 CNS
  TGI: 32 µM
A498 renal
  TGI: 32.6 µM
U251 CNS
  TGI: 33 µM
BT-549 breast
  TGI: 32.3 µM
OVCAR-3 ovarian
  TGI: 22.1 µM
HCT-116 colon
  TGI: 28.1 µM
NCI-H23 lung
  TGI: 36.8 µM
KM20L2 colon
  TGI: 46.2 µM
T-47D breast
  TGI: 33.8 µM
TK-10 renal
  TGI: 20.4 µM
HOP-92 NSCLC
  TGI: 6.79 µM
SN12C renal
  TGI: 32.9 µM
RPMI-8226 leukemia
  TGI: 5.92 µM
HS 578T breast
  TGI: 7.43 µM
COLO 205 colon
  TGI: 10.6 µM
IGROV1 ovarian
  TGI: 41.2 µM
SK-MEL-5 melanoma
  TGI: 29.5 µM
DU-145 prostate
  TGI: 32.7 µM
HCC-2998 colon
  TGI: 34.8 µM
PC-3 prostate
  TGI: 31.8 µM
A549 NSCLC
  TGI: 41.3 µM
CAKI-1 renal
  TGI: 11 µM
LXFL 529 NSCLC
  TGI: 9.76 µM
HL-60(TB) leukemia
  TGI: 8.9 µM
SR leukemia
  TGI: 5.61 µM
OVCAR-4 ovarian
  TGI: 51.2 µM
MALME-3M melanoma
  TGI: 17.2 µM
K-562 leukemia
  TGI: > 22.4 µM
SNB-75 CNS
  TGI: 27.8 µM
MDA-N
  TGI: 31.9 µM
HOP-18 NSCLC
  TGI: 32.6 µM
SK-MEL-28 melanoma
  TGI: 29.3 µM
MOLT-4 leukemia
  TGI: > 21.1 µM
KM12 colon
  TGI: 31.2 µM
RXF 393 renal
  TGI: 23.9 µM
HT29 colon
  TGI: 15.7 µM
EKVX NSCLC
  TGI: 41.6 µM
MDA-MB-435
  TGI: 31.1 µM
786-0 renal
  TGI: 9.05 µM
NCI-H460 lung
  TGI: 45 µM
NCI-H522 lung
  TGI: 3.89 µM
HOP-62 NSCLC
  TGI: 34.1 µM
LOX IMVI melanoma
  TGI: 34.3 µM
UACC-257 melanoma
  TGI: 35.4 µM
M19-MEL melanoma
  TGI: 42.4 µM
UACC-62 melanoma
  TGI: 38.4 µM
RXF-631 renal
  TGI: 34.5 µM
MCF7 breast
  TGI: 17.7 µM
SK-MEL-2 melanoma
  TGI: 34.3 µM
SNB-19 CNS
  TGI: 47.7 µM
CCRF-CEM leukemia
  TGI: 4.94 µM
OVCAR-5 ovarian
  TGI: 35.3 µM
SF-295 CNS
  TGI: 38.9 µM
ACHN renal
  TGI: 27.2 µM
SW-620 colon
  TGI: 4.82 µM
DLD-1 colon
  TGI: 8.03 µM
UO-31 renal
  TGI: 33.6 µM
SF-268 CNS
  TGI: 56 µM
